Test results as given in patent US10722582B2, “Targeted antimicrobial photodynamic therapy” (Purdue Research Foundation, priority 2018, dated 2020).

Assays:
Format in all cases: cell-based, Staphylococcus aureus
S. aureus (PCI 1203) [1] = test: Competitive hemin uptake assay (fluorescence microscopy); conditions: for Fluorescence after 15 min / Fluorescence after 15 min exposure + 1 equiv. hemin: Fe-deficient conditions (TS media containing 3 mM bipy), no background subtraction; for effect of hemin competition on uptake: one equivalent of hemin, 15 minutes of co-incubation
Protocol: To elucidate the relevant structural features for the specific uptake of Ga-PpIX by S. aureus, we performed a competitive uptake assay using one equivalent of hemin against Ga-PpIX, PpIX, and eleven other fluorescent PpIX derivatives, with evaluation by fluorescence microscopy after 15 minutes of co-incubation (FIG. 5 and Table 4). These studies were partly guided by insights taken from the X-ray structures of hemin and Ga-PpIX within the binding pocket of IsdH: (i) coordination of the metal center by an apical tyrosine residue; (ii) the flanking of vinyl groups on pyrrole rings A and B against nearby aromatic residues; and (iii) the extension and presumed hydration of the propionyl groups (rings C and D) outside of the binding pocket.
Bacteria were cultured and assayed in iron-deficient media unless otherwise noted. A stock solution of Ga-PpIX (14.6 μM) was prepared by dispersing 5 mg in 1 mL of 10% DMSO in PBS for 10 minutes in an ultrasonic cleaning bath protected from light, followed by filtration and 10× dilution in PBS just prior to use. Bacterial suspensions (0.5 mL) were treated with freshly prepared solutions of PpIX derivatives for specified periods (5-15 min), then harvested by centrifugation at 5.2 g for 5 minutes, redispersed twice in 0.5 mL deionized water, and centrifuged a third time. A 10-μL aliquot of concentrated bacteria was deposited onto a glass slide and dried in air for 20 min, then imaged by fluorescence microscopy as described above. For details on fluorescence image processing and quantitative analysis, see Supporting Information.
S. aureus (PCI 1203; ATCC 10537) was first cultured in standard TS broth, then in media containing 3 mM bipyridine. Bacteria were pelleted and washed with PBS buffer three times, then resuspended to a final concentration of 10^8 cfu/mL. Stock solutions of hemin and PpIX derivatives 1-13 were prepared at initial concentrations of 292 μM; hemin and fluorescent PpIX solutions were mixed in a 1:1 ratio (0.5 mL), then added to 0.5 mL of bacterial suspension and allowed to sit for 15 min at room temperature. For control studies, hemin or fluorophore solutions were substituted with PBS to maintain constant […]. Bacteria were harvested and washed as described above, then evaluated by fluorescence microscopy for relative uptake efficiency.
Darkfield and fluorescent images were acquired in succession, with the former used to map regions of interest (ROIs) by tracing the outlines of bacteria (FIG. 8). Three images were acquired for each sample; in each case, the tracing map was overlaid onto the fluorescence image to calculate pixel intensities within each ROI, using the mean pixel intensity for quantitative analysis. Bacteria were also imaged without treatment with PpIX analogs, most of which produced values close to that of background except for Salmonella enterica, which served as the upper limit of autofluorescence (cf. FIG. 4). Data collection and image analyses were performed by the same user to ensure consistency for comparative analysis.

S. aureus [2] = test: aPDI with 405-nm LED bar, summary over strains; conditions: Ga-hemoglobin on 10-nm AgNP, 405-nm light, fluence about 1 J/cm^2
Protocol: (§1) Antibacterial activity assay general protocol: Used LED light to test conditions. Bacteria were grown in TS broth, followed by 3 mM bipyridine in TS broth until log phase. Bacteria were then diluted with PBS, to OD 0.1 (˜10^) and then to ˜10^7 cfu/mL. 100 uL of bacteria were placed in 96 well plates with the appropriate GaPpIX concentration. 2× serial dilutions were then done to obtain other GaPpIX concentrations. Each concentration was done in triplicate. Bacteria were left incubating and irradiating for different amount of times at different light powers or left in the dark. 10× Serial dilutions were done and bacteria were plated for colony counting using the drop-plate technique. Colonies were counted after 24 hours. As reported herein, a 3-log reduction equals measurable antimicrobial action; a 6-log reduction equals total eradication.

MRSA383 = test: Antibacterial activity assay with LED light; conditions: in the presence of 10 nm AgNP
Protocol: as §1
(§2) Stock solution preparation (AVM-3-36, 10 nm AgNP). Prepared a solution of (AVM-2-273) GaPpIX-apoHb 1 mg/mL in MP H2O, deaerated. Took 10 mL of 10 nm AgNPs, centrifuged at 900 G for 5 min (Beckman, 3100 RPM), took supernantant and added 200 uL of GaPpIXHb. After overnight, centrifuged 3000 RPM g for 5 minutes (Beckman). Took supernantant and centrifuged using a 100 K CentriCon tube at 4000 RPM for 5 minutes, 3×. Added 15 mM borate buffer to NPs. Based on calibration curve, the stock solution is 1.94 ug/mL AgNP, so stock: 79 μg/mL AgNP, 10.37 μg/mL GaPpIXHb, 0.446 μg/mL GaPpIX (refer to AVM-2-293A and AVM-3-3).
(§3) The following antibacterial activity measurements were assayed in the presence of AgNP.

MRSA385 = test: Antibacterial activity assay with LED light; conditions: in the presence of 10 nm AgNP
Protocol: as §1, §2, §3

MRSA387 = test: Antibacterial activity assay with LED light; conditions: in the presence of 10 nm AgNP
Protocol: as §1, §2, §3

S. aureus [3] = test: Antibacterial activity assay with LED light
Protocol: as §1, §2, §3

MRSA386 = test: Antibacterial activity assay with LED light; conditions: in the presence of 10 nm AgNP
Protocol: as §1, §2, §3

S. aureus (PCI 1203) [4] = test: Competitive hemin uptake assay (fluorescence microscopy); conditions: standard conditions (TS media); no background subtraction
[5] = test system: S. aureus (PCI 1203; ATCC 10537); test: aPDI with CFL irradiation (406 nm), planktonic bacteria, drop-plate colony count; conditions: for potency relative to dark toxicity (0 min exposure): 3-log reduction
Protocol: The aPDI properties of Ga-PpIX were compared against PpIX, whose photosensitizer activities are well known and whose optical profile is similar to that of Ga-PpIX (FIG. 2).
All bacterial strains were cultured at 37° C. in an aerobic atmosphere unless otherwise noted. […] Bacterial counts were estimated in units of cfu/mL by plating serial dilutions onto agar plates, followed by incubation for 16 hours at 37° C. […] Further details and variations on iron-deficient culture conditions are provided in Supporting Information.
Antimicrobial assays were performed on planktonic bacteria at 10^7 cfu/mL with variable exposure times to CFL irradiation, followed by plating on agar and incubation at 37° C. […] The irradiated bacteria were plated onto agar in serial tenfold dilutions (10^7-10^1 cfu/mL); controls included one set of wells without photosensitizer, and one set of wells with photosensitizer but without 15 min irradiation, prior to plating (dark toxicity). Bacterial counts were determined by the drop-plate method using TS-agar plates, and reported in colony-forming units per milliliter (cfu/mL).
The irradiation source consisted of a 20-W compact fluorescent lightbulb (CFL; Sunlite SL20/BLB) housed in an ellipsoidal reflector dome.

| Compound | Fluorescence after 15 min (S. aureus (PCI 1203) [1]) [a.u.] | Fluorescence after 15 min exposure + 1 equiv. hemin (S. aureus (PCI 1203) [1]) [a.u.] | effect of hemin competition on uptake (S. aureus (PCI 1203) [1]) | also measured |
| --- | --- | --- | --- | --- |
| di-O-succinyl-HP dimethyl diester [DiSuccHP diMe (10)] | 19.37 | 16.9 | less affected by hemin |  |
| di-O-acetyl-HP dimethyl diester [DiAcHP diMe (9)] | 21.6 | 18.95 | less affected by hemin |  |
| Ga(III) diacetyldeuteroporphyrin (diAcDP) dimethyl diester [Ga-DiAcDP diMe (11)] | 12.27 | 11.85 | less affected by hemin |  |
| C=CC1=C(C)c2cc3[nH]c(cc4[nH]c(cc5nc(cc1n2)C(C)=C5C=C)c(C)c4CCC(=O)OC)c(CCC(=O)OC)c3C [PpIX diMe (7), PpIX dimethyl diester] | 15.75 | 12.75 |  |  |
| GaPpIX/10 nm HbAgNP: GaPpIX added to apohemoglobin (Ga-hemoglobin) adsorbed onto 10-nm Ag nanoparticles |  |  |  | GaPpIX effective concentration (aPDI) (S. aureus [2]): 0.022 to 0.080 µM; concentration for 3-log reduction (MRSA383): 27 nM; concentration for 6-log reduction (MRSA383): 79 nM; concentration for 3-log reduction (MRSA385): 27 nM; concentration for 6-log reduction (MRSA385): 109 nM; concentration for 3-log reduction (MRSA387): 43 nM; concentration for 6-log reduction (MRSA387): 218 nM; concentration for 3-log reduction (S. aureus [3]; in the presence of 10 nm AgNP): 22 nM; concentration for 6-log reduction (S. aureus [3]; in the presence of 10 nm AgNP): 27 nM; concentration for 3-log reduction (MRSA386): 79 nM; concentration for 6-log reduction (MRSA386): 158 nM |
| C=CC1=C(C)c2cc3[n-]c(cc4nc(cc5[n-]c(cc1n2)c(C)c5C=C)C(C)=C4CCC(=O)O)c(CCC(=O)O)c3C.[Zn+2] [Zn-PpIX (3), Zn-PpIX] | 31.45 | 16.87 | moderately affected by hemin |  |
| Verteporfin [Verteporfin (13), reference compound] | 30.75 | 28 | less affected by hemin | Fluorescence after 15 min (S. aureus (PCI 1203) [4]): 25.82 a.u.; Fluorescence after 15 min exposure + 1 equiv. hemin (S. aureus (PCI 1203) [4]): 23.72 a.u. |
| C[n+]1ccc(-c2c3nc(c(-c4cc[n+](C)cc4)c4ccc([nH]4)c(-c4cc[n+](C)cc4)c4nc(c(-c5cc[n+](C)cc5)c5ccc2[nH]5)C=C4)C=C3)cc1 [TMPyP, reference compound] |  |  |  | concentration for 3-log reduction (measurable antimicrobial action) (S. aureus [3]): 235 nM; concentration for 6-log reduction (total eradication) (S. aureus [3]): 940 nM; Antimicrobial activity (minimum 3-log CFU reduction) ([5]; 0 min (dark), no irradiation (dark toxicity)): < 7.4 μM; Antimicrobial activity (minimum 3-log CFU reduction) ([5]; 0 min (dark), no irradiation (dark toxicity), listed as TMPy): <7.4 μM; Antimicrobial activity (minimum 3-log CFU reduction) ([5]; 5 min CFL 406 nm, 12.4 mW/cm^2 (3.7 J/cm^2)): 0.92 μM; potency relative to dark toxicity (0 min exposure) ([5]; 5 min CFL): <8x; Antimicrobial activity (minimum 3-log CFU reduction) ([5]; 15 min CFL 406 nm, 12.4 mW/cm^2 (11.2 J/cm^2)): 0.23 μM; potency relative to dark toxicity (0 min exposure) ([5]; 15 min CFL): <32x |
| C=CC1=C(C)c2cc3[n-]c(cc4[n-]c(cc5nc(cc1n2)C(C)=C5C=C)c(C)c4CCC(=O)O)c(CCC(=O)O)c3C.[Cl-].[Fe+3] [hemin, Fe(III)-protoporphyrin IX, reference compound] | 2.55 |  |  |  |
| COC(=O)CCc1c(C)c2cc3nc(cc4nc(cc5[nH]c(cc1[nH]2)c(CCC(=O)OC)c5C)C(C(C)O)=C4C)C(C(C)O)=C3C (stereo not drawn) [HP diMe (8), HP dimethyl diester] | 29.05 | 26.9 |  |  |
| CC1=C(CCC(=O)O)c2cc3[nH]c(cc4nc(cc5[nH]c(cc1n2)c(C)c5C(C)O)C(C)=C4C(C)O)c(C)c3CCC(=O)O (stereo not drawn) [HP (4), hematoporphyrin] | 14.38 | 9.58 |  |  |
| Ga(III)-PpIX dimethyl diester [Ga-PpIX diMe (6)] | 60.55 | 33.95 |  |  |
| Zn-HP [Zn-HP (5)] | 29.2 | 14.52 | moderately affected by hemin |  |
| 3,8-Diacetyldeuteroporphyrin dimethyl diester [DiAcDP diMe (12)] | 20.9 | 18.05 | less affected by hemin |  |
